Biological target: T1, Equilibrative nucleoside transporter 1 (Homo sapiens, UniProt Q99808)
T1 sequence (Q99808 whole entry): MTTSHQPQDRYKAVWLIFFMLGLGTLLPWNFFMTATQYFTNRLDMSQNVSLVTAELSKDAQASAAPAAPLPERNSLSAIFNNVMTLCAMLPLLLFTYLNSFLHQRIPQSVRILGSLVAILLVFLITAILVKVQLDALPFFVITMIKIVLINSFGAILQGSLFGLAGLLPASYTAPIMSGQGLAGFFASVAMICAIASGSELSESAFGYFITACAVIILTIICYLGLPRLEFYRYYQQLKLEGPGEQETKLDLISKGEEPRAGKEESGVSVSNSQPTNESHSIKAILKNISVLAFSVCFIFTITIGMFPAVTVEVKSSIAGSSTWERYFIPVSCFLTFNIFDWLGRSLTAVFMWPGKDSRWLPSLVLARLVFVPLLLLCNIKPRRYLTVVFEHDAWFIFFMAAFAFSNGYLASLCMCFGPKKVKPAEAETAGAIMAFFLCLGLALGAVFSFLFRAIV
Assay: Inhibition of [3H]NBTI binding to equilibrative nucleoside transport protein 1 (ENT1) in human erythrocyte membranes
Assay type: cell membranes

CCCNc1nc2c(NC3CCCC3)ncnc2n1[C@@H]1O[C@H](CO)[C@@H](O)[C@H]1O
Ki: 97 nM

O=[N+]([O-])c1ccc(CSc2ncnc3c2nc(N2CCCC2)n3Cc2ccccc2)cc1
Ki: 1520 nM

O=[N+]([O-])c1ccc(CSc2ncnc3c2nc(N2CCOCC2)n3Cc2ccccc2)cc1
Ki: 51 nM

OC[C@H]1OC(n2c(NC3CC3)nc3c(SCc4ccccc4)ncnc32)[C@H](O)[C@@H]1O (stereo partly drawn)
Ki: 3 nM

CCCCNc1nc2c(SCc3ccccc3)ncnc2n1C1O[C@H](CO)[C@@H](O)[C@H]1O (stereo partly drawn)
Ki: 5.4 nM

OC[C@H]1OC(n2c(NC3CCCCC3)nc3c(SCc4ccccc4)ncnc32)[C@H](O)[C@@H]1O (stereo partly drawn)
Ki: 0.94 nM

OC[C@H]1OC(n2c(N3CCCCC3)nc3c(SCc4ccccc4)ncnc32)[C@H](O)[C@@H]1O (stereo partly drawn)
Ki: 744 nM

OC[C@H]1OC(n2c(N3CCCC3)nc3c(SCc4ccccc4)ncnc32)[C@H](O)[C@@H]1O (stereo partly drawn)
Ki: 410 nM

CCNc1nc2c(SCc3ccccc3)ncnc2n1C1O[C@H](CO)[C@@H](O)[C@H]1O (stereo partly drawn)
Ki: 9.5 nM

CCCNc1nc2c(SCc3ccccc3)ncnc2n1C1O[C@H](CO)[C@@H](O)[C@H]1O (stereo partly drawn)
Ki: 5.3 nM

CNc1nc2c(SCc3ccccc3)ncnc2n1C1O[C@H](CO)[C@@H](O)[C@H]1O (stereo partly drawn)
Ki: 28 nM

CCCCCNc1nc2c(SCc3ccccc3)ncnc2n1C1O[C@H](CO)[C@@H](O)[C@H]1O (stereo partly drawn)
Ki: 2.3 nM

OC[C@H]1OC(n2c(NC3CCCC3)nc3c(SCc4ccccc4)ncnc32)[C@H](O)[C@@H]1O (stereo partly drawn)
Ki: 0.64 nM

CCCCCCNc1nc2c(SCc3ccccc3)ncnc2n1C1O[C@H](CO)[C@@H](O)[C@H]1O (stereo partly drawn)
Ki: 3.7 nM

CCC(C)CNc1nc2c(SCc3ccccc3)ncnc2n1C1O[C@H](CO)[C@@H](O)[C@H]1O (stereo partly drawn)
Ki: 3.6 nM

OC[C@H]1OC(n2c(N3CCOCC3)nc3c(SCc4ccccc4)ncnc32)[C@H](O)[C@@H]1O (stereo partly drawn)
Inhibition: 33%

OC[C@H]1O[C@@H](n2cnc3c(SCc4ccccc4)ncnc32)[C@H](O)[C@@H]1O [6-BENZYLTHIOINOSINE]
Ki: 53 nM

OC[C@H]1O[C@@H](n2cnc3c(NC4CCCC4)ncnc32)[C@H](O)[C@@H]1O [N6-CYCLOPENTYLADENOSINE]
Ki: 1100 nM

From ChEMBL document CHEMBL1144396 (J Med Chem, 2005)
